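A five-concentration, 48-hour dose response in 96-well plates underlies each endpoint, interpolated linearly between surrounding concentrations. TGI is the concentration that stops growth completely.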
Experiments:
Test in all cases: NCI tumour cell line growth inhibition, 48 h
786-0 renal = system: 786-0 renal
A549 NSCLC = system: A549 NSCLC
ACHN renal = system: ACHN renal
BT-549 breast = system: BT-549 breast
CAKI-1 renal = system: CAKI-1 renal
CCRF-CEM leukemia = system: CCRF-CEM leukemia
COLO 205 colon = system: COLO 205 colon
DU-145 prostate = system: DU-145 prostate
EKVX NSCLC = system: EKVX NSCLC
HCC-2998 colon = system: HCC-2998 colon
HCT-116 colon = system: HCT-116 colon
HCT-15 colon = system: HCT-15 colon
HOP-62 NSCLC = system: HOP-62 NSCLC
HOP-92 NSCLC = system: HOP-92 NSCLC
HS 578T breast = system: HS 578T breast
HT29 colon = system: HT29 colon
IGROV1 ovarian = system: IGROV1 ovarian
K-562 leukemia = system: K-562 leukemia
KM12 colon = system: KM12 colon
LOX IMVI melanoma = system: LOX IMVI melanoma
M14 melanoma = system: M14 melanoma
MCF7 breast = system: MCF7 breast
MDA-MB-231 breast = system: MDA-MB-231 breast
MDA-MB-435 = system: MDA-MB-435
MDA-N = system: MDA-N
MOLT-4 leukemia = system: MOLT-4 leukemia
NCI-H226 lung = system: NCI-H226 lung
NCI-H23 lung = system: NCI-H23 lung
NCI-H460 lung = system: NCI-H460 lung
NCI-H522 lung = system: NCI-H522 lung
NCI/ADR-RES ovarian = system: NCI/ADR-RES ovarian
OVCAR-3 ovarian = system: OVCAR-3 ovarian
OVCAR-4 ovarian = system: OVCAR-4 ovarian
OVCAR-5 ovarian = system: OVCAR-5 ovarian
OVCAR-8 ovarian = system: OVCAR-8 ovarian
PC-3 prostate = system: PC-3 prostate
SF-268 CNS = system: SF-268 CNS
SF-295 CNS = system: SF-295 CNS
SF-539 CNS = system: SF-539 CNS
SK-MEL-28 melanoma = system: SK-MEL-28 melanoma
SK-MEL-5 melanoma = system: SK-MEL-5 melanoma
SK-OV-3 ovarian = system: SK-OV-3 ovarian
SN12C renal = system: SN12C renal
SNB-19 CNS = system: SNB-19 CNS
SNB-75 CNS = system: SNB-75 CNS
SR leukemia = system: SR leukemia
SW-620 colon = system: SW-620 colon
T-47D breast = system: T-47D breast
TK-10 renal = system: TK-10 renal
U251 CNS = system: U251 CNS
UACC-257 melanoma = system: UACC-257 melanoma
UACC-62 melanoma = system: UACC-62 melanoma
UO-31 renal = system: UO-31 renal
A498 renal = system: A498 renal
HL-60(TB) leukemia = system: HL-60(TB) leukemia
MALME-3M melanoma = system: MALME-3M melanoma
RXF 393 renal = system: RXF 393 renal
SK-MEL-2 melanoma = system: SK-MEL-2 melanoma
RPMI-8226 leukemia = system: RPMI-8226 leukemia

Measured: TGI

C(#Cc1ccccc1)SC1=C(c2ccccc2)S/C(=C(\SC#Cc2ccccc2)c2ccccc2)S1
not listed: A498 renal | HL-60(TB) leukemia | MALME-3M melanoma | RXF 393 renal | SK-MEL-2 melanoma | RPMI-8226 leukemia
> 100 µM: all other assays above

Clc1cc2nnn(C3CCCO3)c2cc1Cl (configuration not stated)
not listed: ACHN renal | HOP-92 NSCLC | KM12 colon | LOX IMVI melanoma | OVCAR-4 ovarian | SK-MEL-28 melanoma | SNB-19 CNS | SW-620 colon | UO-31 renal | RPMI-8226 leukemia
> 100 µM: all other assays above

COC(=O)C(NC(=O)OC(C)(C)C)P(=O)(OC)OC (configuration not stated)
not listed: CCRF-CEM leukemia | HCC-2998 colon | NCI-H460 lung | SF-539 CNS | SNB-75 CNS
> 100 µM: all other assays above

CCCCCCCCCCCCOP(=O)(O)OP(=O)(O)OCC1OC(n2cc(C)c(=O)[nH]c2=O)CC1O (configuration not stated)
not listed: DU-145 prostate | SR leukemia | UACC-62 melanoma
> 100 µM: all other assays above
